Test results as given in ChEMBL document CHEMBL1201862, “PubChem BioAssay data set” (2004).
Activity calls are given as the source filed them.

Assays:
Assay type in all cases: functional
[1] = target: Inhibitor of nuclear factor kappa-B kinase subunit epsilon (Homo sapiens, UniProt Q14164); assay: Navigating the Kinome. Panel member name: IKBKE
[2] = target: Glycogen synthase kinase-3 beta (Homo sapiens, UniProt P49841);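 further: value comes from a broad kinome profiling panel, with GSK3B as the panel member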
Sequence of Glycogen synthase kinase-3 beta (P49841 whole entry): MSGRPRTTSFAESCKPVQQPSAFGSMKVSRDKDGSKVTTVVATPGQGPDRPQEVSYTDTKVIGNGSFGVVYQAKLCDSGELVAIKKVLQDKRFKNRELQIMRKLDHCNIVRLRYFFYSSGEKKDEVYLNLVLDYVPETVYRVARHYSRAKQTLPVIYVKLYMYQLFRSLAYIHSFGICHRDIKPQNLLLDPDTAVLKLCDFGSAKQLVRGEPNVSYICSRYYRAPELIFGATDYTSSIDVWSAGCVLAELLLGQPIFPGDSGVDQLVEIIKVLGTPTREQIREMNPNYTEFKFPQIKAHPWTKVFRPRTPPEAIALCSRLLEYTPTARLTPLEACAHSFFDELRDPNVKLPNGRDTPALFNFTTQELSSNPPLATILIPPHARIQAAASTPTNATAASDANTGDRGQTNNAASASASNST

[3] = target: Rho-associated protein kinase 1 (Homo sapiens, UniProt Q13464);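 further: measured within a broad kinome-wide panel profiling many kinases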
[4] = target: High affinity nerve growth factor receptor (Homo sapiens, UniProt P04629);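 further: NTRK1 tested as one member of a kinome-wide profiling panel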
Sequence of High affinity nerve growth factor receptor (P04629 whole entry): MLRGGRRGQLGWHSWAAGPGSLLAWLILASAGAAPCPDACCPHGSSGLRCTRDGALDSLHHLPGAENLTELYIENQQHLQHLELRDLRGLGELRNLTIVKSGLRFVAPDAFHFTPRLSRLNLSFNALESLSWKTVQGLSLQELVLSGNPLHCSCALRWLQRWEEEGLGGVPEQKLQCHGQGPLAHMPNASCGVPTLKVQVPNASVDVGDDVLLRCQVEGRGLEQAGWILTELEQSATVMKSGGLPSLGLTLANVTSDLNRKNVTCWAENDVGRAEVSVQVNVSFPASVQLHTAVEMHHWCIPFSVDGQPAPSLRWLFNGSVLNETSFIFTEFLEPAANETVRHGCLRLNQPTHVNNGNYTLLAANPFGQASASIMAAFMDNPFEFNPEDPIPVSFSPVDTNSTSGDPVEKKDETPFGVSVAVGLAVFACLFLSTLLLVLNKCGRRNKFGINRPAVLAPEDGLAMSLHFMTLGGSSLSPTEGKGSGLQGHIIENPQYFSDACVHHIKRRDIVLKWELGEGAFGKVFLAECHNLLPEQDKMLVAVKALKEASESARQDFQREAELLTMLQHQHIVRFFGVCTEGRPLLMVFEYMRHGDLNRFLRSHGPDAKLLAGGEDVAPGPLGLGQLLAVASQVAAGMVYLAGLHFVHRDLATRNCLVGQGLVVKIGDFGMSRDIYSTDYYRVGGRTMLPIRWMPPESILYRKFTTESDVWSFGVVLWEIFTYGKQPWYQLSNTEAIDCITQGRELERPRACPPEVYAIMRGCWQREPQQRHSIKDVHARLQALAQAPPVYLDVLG

[5] = target: Tyrosine-protein kinase JAK2 (Homo sapiens, UniProt O60674);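 further: JAK2 tested as one member of a kinase panel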
[6] = target: Macrophage-stimulating protein receptor (Homo sapiens, UniProt Q04912); assay: Navigating the Kinome. Panel member name: MST1R
Sequence of Macrophage-stimulating protein receptor (Q04912 25-304 limits assumed): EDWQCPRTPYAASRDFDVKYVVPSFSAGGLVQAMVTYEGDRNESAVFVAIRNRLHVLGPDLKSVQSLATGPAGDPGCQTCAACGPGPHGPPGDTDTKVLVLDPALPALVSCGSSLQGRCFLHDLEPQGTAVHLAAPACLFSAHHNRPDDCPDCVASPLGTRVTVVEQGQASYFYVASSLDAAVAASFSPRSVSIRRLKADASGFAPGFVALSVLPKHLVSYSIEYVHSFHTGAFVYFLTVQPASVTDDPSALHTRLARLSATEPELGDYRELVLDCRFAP
Sequence of Macrophage-stimulating protein receptor (Q04912 310-1400 limits assumed): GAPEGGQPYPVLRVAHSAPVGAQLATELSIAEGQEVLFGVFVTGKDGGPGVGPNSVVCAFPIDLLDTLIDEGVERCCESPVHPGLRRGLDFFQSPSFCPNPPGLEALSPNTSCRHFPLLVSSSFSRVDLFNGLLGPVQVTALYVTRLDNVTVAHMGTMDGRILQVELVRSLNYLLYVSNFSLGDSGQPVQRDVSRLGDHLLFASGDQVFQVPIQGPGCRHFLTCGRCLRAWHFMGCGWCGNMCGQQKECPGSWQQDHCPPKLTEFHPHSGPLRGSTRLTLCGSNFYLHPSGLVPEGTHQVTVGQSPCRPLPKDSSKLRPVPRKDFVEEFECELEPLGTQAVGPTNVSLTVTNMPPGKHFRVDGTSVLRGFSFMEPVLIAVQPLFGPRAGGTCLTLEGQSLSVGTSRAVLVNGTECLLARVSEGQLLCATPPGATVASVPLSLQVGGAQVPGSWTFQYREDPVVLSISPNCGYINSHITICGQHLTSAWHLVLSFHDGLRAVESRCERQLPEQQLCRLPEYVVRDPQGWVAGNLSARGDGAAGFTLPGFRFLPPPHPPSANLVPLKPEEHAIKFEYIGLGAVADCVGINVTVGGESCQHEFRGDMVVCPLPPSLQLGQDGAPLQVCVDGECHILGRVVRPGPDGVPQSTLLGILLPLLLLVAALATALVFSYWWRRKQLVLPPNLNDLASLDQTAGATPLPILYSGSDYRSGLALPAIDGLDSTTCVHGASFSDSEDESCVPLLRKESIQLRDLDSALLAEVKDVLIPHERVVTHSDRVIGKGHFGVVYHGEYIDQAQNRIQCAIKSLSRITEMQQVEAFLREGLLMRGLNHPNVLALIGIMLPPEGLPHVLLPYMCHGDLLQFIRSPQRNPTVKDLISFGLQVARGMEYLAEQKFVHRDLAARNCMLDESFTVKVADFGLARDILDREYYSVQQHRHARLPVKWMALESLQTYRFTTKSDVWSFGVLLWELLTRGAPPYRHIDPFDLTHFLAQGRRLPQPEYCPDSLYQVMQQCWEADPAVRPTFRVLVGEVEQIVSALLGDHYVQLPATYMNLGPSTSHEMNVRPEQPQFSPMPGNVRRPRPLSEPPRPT

[7] = target: Glycogen synthase kinase-3 alpha (Homo sapiens, UniProt P49840);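 further: GSK3A result taken from a broad kinome-wide kinase panel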
Sequence of Glycogen synthase kinase-3 alpha (P49840 whole entry): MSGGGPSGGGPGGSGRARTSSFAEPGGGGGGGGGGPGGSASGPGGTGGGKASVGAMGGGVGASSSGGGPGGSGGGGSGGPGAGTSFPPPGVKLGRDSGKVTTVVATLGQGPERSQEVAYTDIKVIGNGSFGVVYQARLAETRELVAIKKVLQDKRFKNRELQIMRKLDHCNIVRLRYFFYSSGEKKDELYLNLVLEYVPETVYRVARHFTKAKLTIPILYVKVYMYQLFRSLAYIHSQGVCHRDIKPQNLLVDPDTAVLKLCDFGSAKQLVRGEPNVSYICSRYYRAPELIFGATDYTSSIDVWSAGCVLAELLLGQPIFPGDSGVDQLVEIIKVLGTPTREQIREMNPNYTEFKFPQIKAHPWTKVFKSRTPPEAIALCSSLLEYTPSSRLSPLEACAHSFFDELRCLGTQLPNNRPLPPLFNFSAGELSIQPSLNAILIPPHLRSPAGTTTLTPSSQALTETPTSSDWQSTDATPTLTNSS

[8] = target: Tyrosine-protein kinase receptor TYRO3 (Homo sapiens, UniProt Q06418);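 further: TYRO3 value obtained as one member of a kinome-wide profiling panel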
[9] = target: Mitogen-activated protein kinase kinase kinase kinase 4 (Homo sapiens, UniProt O95819)
Sequence of Mitogen-activated protein kinase kinase kinase kinase 4 (O95819 whole entry): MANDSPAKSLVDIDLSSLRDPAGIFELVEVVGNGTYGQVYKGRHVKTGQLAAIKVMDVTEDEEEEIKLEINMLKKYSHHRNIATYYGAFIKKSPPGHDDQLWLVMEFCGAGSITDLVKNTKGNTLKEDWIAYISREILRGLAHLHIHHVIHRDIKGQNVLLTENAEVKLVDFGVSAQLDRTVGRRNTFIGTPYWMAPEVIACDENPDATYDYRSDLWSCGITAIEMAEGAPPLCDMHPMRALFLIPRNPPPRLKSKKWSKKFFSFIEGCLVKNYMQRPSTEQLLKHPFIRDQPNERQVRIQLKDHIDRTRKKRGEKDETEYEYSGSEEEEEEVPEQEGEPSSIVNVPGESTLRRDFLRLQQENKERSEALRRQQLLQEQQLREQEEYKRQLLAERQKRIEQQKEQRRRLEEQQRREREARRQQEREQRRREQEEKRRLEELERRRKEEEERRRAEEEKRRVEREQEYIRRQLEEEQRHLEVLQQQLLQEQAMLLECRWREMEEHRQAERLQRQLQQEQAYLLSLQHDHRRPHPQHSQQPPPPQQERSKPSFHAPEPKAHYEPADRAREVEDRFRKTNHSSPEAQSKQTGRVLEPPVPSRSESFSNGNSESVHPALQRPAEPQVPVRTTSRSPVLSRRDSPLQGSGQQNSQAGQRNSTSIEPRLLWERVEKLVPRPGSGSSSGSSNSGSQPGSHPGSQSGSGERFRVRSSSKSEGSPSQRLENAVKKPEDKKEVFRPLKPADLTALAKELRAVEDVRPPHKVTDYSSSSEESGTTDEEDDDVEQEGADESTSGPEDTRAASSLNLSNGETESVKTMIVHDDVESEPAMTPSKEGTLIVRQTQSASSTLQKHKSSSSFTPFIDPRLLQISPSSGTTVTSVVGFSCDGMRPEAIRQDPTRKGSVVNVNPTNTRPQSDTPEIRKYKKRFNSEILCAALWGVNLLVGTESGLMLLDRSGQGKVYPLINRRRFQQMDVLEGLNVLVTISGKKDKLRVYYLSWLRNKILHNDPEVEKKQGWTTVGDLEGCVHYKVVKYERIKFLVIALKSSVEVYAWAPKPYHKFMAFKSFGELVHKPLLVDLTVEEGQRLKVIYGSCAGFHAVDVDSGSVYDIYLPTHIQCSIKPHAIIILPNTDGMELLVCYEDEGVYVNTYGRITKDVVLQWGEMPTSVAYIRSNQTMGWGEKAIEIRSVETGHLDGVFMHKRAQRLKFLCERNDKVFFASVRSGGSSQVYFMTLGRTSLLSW

[10] = target: T1, Sentrin-specific protease 8 (Homo sapiens, UniProt Q96LD8);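 further: luminescence read-out of SENP8 inhibition, dose-response confirmation following an ultra-high-throughput screen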
T1 sequence (Q96LD8 whole entry): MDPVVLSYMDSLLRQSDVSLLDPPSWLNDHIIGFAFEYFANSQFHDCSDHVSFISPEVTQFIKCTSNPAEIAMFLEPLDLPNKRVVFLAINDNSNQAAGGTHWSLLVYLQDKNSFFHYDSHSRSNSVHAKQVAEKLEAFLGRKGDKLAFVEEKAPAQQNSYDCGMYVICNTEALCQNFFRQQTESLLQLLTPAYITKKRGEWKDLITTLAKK

[11] = target: T2, Sentrin-specific protease 7 (Homo sapiens, UniProt Q9BQF6);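 further: Luminescence-based dose-response confirmation of ultra-high-throughput screening hits, measuring inhibition of SENP7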
T2 sequence (Q9BQF6 whole entry): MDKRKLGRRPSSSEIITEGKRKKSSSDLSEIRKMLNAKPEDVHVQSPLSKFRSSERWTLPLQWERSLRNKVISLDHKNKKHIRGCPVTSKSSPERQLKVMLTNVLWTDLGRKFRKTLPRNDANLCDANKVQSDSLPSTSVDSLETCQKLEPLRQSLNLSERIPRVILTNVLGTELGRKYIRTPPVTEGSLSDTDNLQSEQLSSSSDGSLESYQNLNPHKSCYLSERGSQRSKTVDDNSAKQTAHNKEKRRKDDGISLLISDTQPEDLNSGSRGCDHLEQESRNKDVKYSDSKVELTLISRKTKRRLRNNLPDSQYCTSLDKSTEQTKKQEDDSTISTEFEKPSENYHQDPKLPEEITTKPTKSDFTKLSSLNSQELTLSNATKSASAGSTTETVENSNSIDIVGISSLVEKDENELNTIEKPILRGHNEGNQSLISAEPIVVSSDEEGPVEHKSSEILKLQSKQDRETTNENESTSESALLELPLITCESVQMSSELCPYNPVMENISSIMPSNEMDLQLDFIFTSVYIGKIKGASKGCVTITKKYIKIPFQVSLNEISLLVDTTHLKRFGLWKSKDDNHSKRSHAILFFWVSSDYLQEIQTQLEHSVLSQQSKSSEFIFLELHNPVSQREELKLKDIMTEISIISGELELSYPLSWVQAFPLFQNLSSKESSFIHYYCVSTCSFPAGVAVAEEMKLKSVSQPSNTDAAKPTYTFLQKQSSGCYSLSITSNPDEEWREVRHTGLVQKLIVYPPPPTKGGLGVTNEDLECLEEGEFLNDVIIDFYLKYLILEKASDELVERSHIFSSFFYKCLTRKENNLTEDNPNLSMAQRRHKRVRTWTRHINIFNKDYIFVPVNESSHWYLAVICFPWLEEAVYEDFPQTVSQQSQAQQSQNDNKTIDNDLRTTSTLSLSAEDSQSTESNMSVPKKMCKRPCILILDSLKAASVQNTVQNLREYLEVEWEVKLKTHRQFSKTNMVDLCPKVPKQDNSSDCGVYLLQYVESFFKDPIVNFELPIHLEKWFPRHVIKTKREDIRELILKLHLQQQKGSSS

[12] = target: T3, Apoptotic protease-activating factor 1 (Homo sapiens, UniProt O14727)
T3 sequence (O14727 whole entry): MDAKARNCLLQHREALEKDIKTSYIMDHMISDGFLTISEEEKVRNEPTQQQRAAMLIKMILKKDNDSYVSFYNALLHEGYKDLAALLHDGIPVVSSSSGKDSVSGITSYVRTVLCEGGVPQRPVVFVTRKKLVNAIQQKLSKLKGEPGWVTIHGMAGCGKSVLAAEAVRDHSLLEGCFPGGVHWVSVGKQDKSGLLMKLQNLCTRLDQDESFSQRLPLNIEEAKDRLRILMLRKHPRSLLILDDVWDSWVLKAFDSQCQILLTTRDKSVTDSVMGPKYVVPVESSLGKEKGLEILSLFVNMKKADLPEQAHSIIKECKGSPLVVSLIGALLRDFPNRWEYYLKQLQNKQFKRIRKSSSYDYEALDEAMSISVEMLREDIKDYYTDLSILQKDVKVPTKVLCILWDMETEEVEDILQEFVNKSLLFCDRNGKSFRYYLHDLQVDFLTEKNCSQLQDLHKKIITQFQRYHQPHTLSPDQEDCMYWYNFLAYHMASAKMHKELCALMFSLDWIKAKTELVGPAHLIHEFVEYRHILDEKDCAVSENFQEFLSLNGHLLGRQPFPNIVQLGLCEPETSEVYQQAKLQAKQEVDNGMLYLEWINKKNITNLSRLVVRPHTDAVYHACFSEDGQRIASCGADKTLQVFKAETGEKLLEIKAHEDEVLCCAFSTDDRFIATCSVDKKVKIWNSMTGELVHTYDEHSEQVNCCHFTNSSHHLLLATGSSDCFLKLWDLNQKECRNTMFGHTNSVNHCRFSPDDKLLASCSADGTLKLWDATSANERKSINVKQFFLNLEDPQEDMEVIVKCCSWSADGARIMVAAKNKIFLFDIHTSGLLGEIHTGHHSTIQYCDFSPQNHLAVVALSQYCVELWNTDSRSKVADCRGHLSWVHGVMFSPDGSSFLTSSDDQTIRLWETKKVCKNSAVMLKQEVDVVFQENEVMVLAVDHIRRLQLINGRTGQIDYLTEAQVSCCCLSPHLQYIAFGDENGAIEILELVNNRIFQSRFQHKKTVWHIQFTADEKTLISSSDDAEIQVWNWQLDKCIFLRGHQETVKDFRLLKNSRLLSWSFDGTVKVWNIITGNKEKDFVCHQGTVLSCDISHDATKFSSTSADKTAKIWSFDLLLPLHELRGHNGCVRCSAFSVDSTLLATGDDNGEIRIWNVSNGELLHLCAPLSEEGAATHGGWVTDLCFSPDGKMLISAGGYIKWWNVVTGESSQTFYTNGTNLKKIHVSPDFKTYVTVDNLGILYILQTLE

Sequence of Inhibitor of nuclear factor kappa-B kinase subunit epsilon (Q14164 whole entry): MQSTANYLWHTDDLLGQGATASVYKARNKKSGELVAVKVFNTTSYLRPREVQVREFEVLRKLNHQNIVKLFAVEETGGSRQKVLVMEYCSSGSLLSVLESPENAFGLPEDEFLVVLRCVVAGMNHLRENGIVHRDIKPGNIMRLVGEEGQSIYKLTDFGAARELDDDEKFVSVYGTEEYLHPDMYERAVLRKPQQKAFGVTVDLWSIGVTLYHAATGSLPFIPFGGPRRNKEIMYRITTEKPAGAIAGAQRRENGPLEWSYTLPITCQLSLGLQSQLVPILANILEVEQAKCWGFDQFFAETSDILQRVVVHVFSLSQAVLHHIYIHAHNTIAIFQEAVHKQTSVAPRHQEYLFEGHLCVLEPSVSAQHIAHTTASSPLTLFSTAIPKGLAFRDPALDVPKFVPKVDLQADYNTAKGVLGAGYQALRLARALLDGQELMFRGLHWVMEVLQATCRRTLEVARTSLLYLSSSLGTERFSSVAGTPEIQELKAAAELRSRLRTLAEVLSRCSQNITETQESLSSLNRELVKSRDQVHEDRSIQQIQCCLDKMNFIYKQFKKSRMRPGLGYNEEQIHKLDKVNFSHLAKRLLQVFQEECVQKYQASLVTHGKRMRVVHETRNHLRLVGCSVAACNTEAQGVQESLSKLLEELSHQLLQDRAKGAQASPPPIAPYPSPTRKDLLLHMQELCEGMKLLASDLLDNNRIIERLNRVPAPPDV

| Ki [1] | Ki [2] | Ki [3] | Ki [4] | Ki [5] | Ki [6] | Ki [7] | Ki [8] | Ki [9] | Compound | IC50 [10] | IC50 [11] | IC50 [12] |
| --- | --- | --- | --- | --- | --- | --- | --- | --- | --- | --- | --- | --- |
| > 3.16 µM (inactive) | > 3.98 µM (inactive) | > 0.316 µM (inactive) | > 3.16 µM (inactive) | > 2.51 µM (inactive) | > 3.98 µM (inactive) | > 3.98 µM (inactive) | > 3.16 µM (inactive) | 2.51 µM (active) | O=C(Nc1cc(-c2c[nH]c3ncccc23)cc(Cl)n1)c1ccccc1 | – | – | – |
| – | – | – | – | – | – | – | – | – | O=C(N/N=C/c1c(O)ccc2ccccc12)c1[nH]ncc1Br | > 100 µM (inactive) | 7.19 µM (active) | – |
| – | – | – | – | – | – | – | – | – | O=C(Cc1ccccc1Cl)NC1(O)C(=O)c2ccccc2C1=O | – | – | 12 µM (active) |
| – | – | – | – | – | – | – | – | – | Nc1nnc2c(n1)CCCC2 | 10.8 µM (active) | 10.2 µM (active) | 7.19 µM (active) |
| > 3.16 µM (inactive) | > 3.98 µM (inactive) | > 3.98 µM (inactive) | 0.1 µM (active) | > 2.51 µM (inactive) | > 3.98 µM (inactive) | > 3.98 µM (inactive) | 1.26 µM (active) | > 5.01 µM (inactive) | Nc1c(-c2ccc(NC(=O)Nc3cccc(C(F)(F)F)c3)cc2)cnc2c(-c3ccc4c(c3)OCO4)cnn12 | – | – | – |
